Experimental data taken from patent EP0493782A2, “Novel dihydropyridine amides, process for their preparation and drugs containing them” (BAYER AG, priority 1991, dated 1992).

System: ANP-System
Assay: Acute hypervolaemia model in the rat (volume load, urine collected over one hour)
Assay type: in vivo
Conditions: Ratte; for Steigerung der Na⁺-Ausscheidung: 10 mg/kg p.o. in Tylose-Suspension, acute volume load by 15 ml/kg physiological saline into the tail vein, urine collected over one hour
Excerpt: Die ausgewählten erfindungsgemäßen Verbindungen zeigen ein nicht vorhersehbares, wertvolles pharmakologisches Wirkspektrum. Im Vergleich zu strukturähnlichen, bekannten Dihydropyridinen wie z.B. in DOS 2 228 377 beschriebenen Vertretern, zeigen die erfindungsgemäßen Verbindungen sowohl quantitativ als auch qualitativ ein anderes Wirkungsspektrum. Neben ihrer calciumantagonistischen Wirkung steigern sie die ANP-abhängige Natriurese bei Stimulation des ANP-Systems durch Volumenbelastung. Diese zusätzliche Wirkkomponente wurde in einem Modell der akuten Hypervolämie an der Ratte nachgewiesen: Die Testsubstanzen wurden oral in Tylose-Suspension verabreicht. Durch Injektion von 15 ml/kg physiologischer Kochsalzlösung in die Schwanzvene wurde eine akute Volumenbelastung ausgelöst und anschließend der Urin über eine Stunde gesammelt. Unerwarteterweise verstärken die erfindungsgemäßen Verbindungen die Natriumausscheidung. Gleichzeitig wird die Ausscheidung von cGMP, das einen spezifischen Marker für die Aktivierung des ANP-Systems darstellt, erhöht (z.B. um 100 % bei Beispiel 19).

## COC(=O)C1=C(C)NC(C)=C(C(=O)NC2CC2)C1c1ccccc1OCCCOc1ccccc1 (stereo not shown) [Beispiel 2]
  Steigerung der Na⁺-Ausscheidung: 80%

## COC(=O)C1=C(C)NC(C)=C(C(=O)NC2CCCC2)C1c1ccccc1OC (stereo not shown) [Beispiel 11]
  Steigerung der Na⁺-Ausscheidung: 95%

## COC(=O)C1=C(C)NC(C)=C(C(=O)NC2CC2)C1c1ccccc1OC(F)(F)F (stereo not shown) [Beispiel 19]
  Steigerung der Na⁺-Ausscheidung: 100%
Oral in Tylose-Suspension, acute volume load by 15 ml/kg saline i.v., urine over one hour, dose not given
  Ausscheidung von cGMP erhöht: 100%
